Reference: ChEMBL document CHEMBL1212815, “Quinolines and structurally related heterocycles as antimalarials” (Eur J Med Chem, 2010)
≈ marks a conversion by molar mass, not a printed value. Values belong to the molecule of their own block, whether it stands above or below them. Calls of active or inactive are those of the source. No cut-off for these calls is given here.

Key:
Plasmodium falciparum [1] = test: Antimalarial activity against Plasmodium falciparum; assay type: functional, organism-based
Plasmodium berghei [2] = test: Antiplasmodial activity against Plasmodium berghei infected in perorally dosed mice (Mus musculus); assay type: functional, organism-based
Plasmodium falciparum [3] = test: Antimalarial activity against Plasmodium falciparum FAC8; assay type: functional, organism-based
Plasmodium falciparum [4] = test: Antimalarial activity against chloroquine-resistant Plasmodium falciparum FcB1; assay type: functional, organism-based; conditions: FcB1/Columbia
Plasmodium vinckei = test: Antiplasmodial activity against Plasmodium vinckei infected in mice (Mus musculus) assessed as reduction in parasitemia measured per day for 4 days; assay type: functional; conditions: 96 h
Plasmodium falciparum [5] = test: Antimalarial activity against chloroquine-resistant Plasmodium falciparum; assay type: functional, organism-based
[6] = Toxicity in mouse assessed as maximum tolerated dose; assay type: organism-based; conditions: in vivo, read-out: Activity
Plasmodium berghei [7] = test: Antiplasmodial activity against Plasmodium berghei infected in mice (Mus musculus) assessed as suppression of parasitaemia at 100 mg/kg, po; assay type: functional
Plasmodium falciparum [8] = test: Antimalarial activity against chloroquine-resistant Plasmodium falciparum D10; assay type: functional, organism-based
Plasmodium falciparum [9] = test: Antimalarial activity against chloroquine-sensitive Plasmodium falciparum; assay type: functional, organism-based
Plasmepsin II = Plasmepsin II (Plasmodium falciparum, UniProt P46925); test: Inhibition of Plasmodium falciparum plasmepsin-2
[10] = Inhibition of Plasmodium falciparum DHFR
[11] = Dissociation constant, pKa of the compound; assay type: physicochemical
Plasmodium falciparum [12] = test: Antimalarial activity against chloroquine-resistant Plasmodium falciparum K1; assay type: functional, organism-based
Plasmodium chabaudi = test: Antiplasmodial activity against Plasmodium chabaudi infected in mice (Mus musculus) assessed as reduction in parasitaemia measured at 50 mg/kg, perorally daily for 4 days; assay type: functional, organism-based; parameters: dose 50 mg/kg
[13] = Inhibition of Plasmodium falciparum falcipain-2
Plasmodium falciparum [14] = test: Antimalarial activity against chloroquine-resistant Plasmodium falciparum 3D7; assay type: functional, organism-based; conditions: read-out: ED50 (the source's name)
[15] = Inhibition of Plasmodium falciparum protein farnesyltransferase
Plasmodium falciparum [16] = test: Selectivity index, ratio of IC50 for Plasmodium falciparum D6 to IC50 for Plasmodium falciparum W2; assay type: functional
Plasmodium falciparum [17] = test: Antimalarial activity against chloroquine-resistant Plasmodium falciparum W2; assay type: functional, organism-based
Plasmodium falciparum [18] = test: Antimalarial activity against chloroquine-resistant Plasmodium falciparum HB3; assay type: functional, organism-based
Plasmodium falciparum [19] = test: Antimalarial activity against chloroquine-resistant Plasmodium falciparum Dd2; assay type: functional, organism-based

Sequence of Plasmepsin II (P46925 whole entry): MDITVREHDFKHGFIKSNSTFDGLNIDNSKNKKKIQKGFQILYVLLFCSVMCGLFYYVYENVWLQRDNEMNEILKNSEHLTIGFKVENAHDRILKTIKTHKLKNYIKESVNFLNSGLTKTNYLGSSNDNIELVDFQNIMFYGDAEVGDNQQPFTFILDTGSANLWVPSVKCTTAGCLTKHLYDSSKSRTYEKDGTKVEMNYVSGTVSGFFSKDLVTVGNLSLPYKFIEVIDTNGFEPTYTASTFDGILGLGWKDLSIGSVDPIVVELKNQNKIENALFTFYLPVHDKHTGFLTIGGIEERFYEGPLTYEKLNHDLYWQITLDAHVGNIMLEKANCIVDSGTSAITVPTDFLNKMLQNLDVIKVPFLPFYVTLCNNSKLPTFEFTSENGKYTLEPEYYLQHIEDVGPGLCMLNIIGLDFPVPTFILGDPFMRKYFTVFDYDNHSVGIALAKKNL

Compound: COc1cc2cc(/C=C3\CCc4c(OC)cccc4C3=O)c(Cl)nc2cc1OC
inhibition (INH) (Plasmodium falciparum [1]): 50%

IC50 (Plasmodium berghei [2]; Plasmodium berghei): 18.1 nM
Compound: CCN(CC)Cc1cc(N)cc(Nc2ccnc3cc(Cl)ccc23)c1

IC50 (Plasmodium berghei [2]; Plasmodium berghei): 1.06 µg/mL
Compound: OC1(C(F)(F)F)CC(c2ccccc2)=NN1c1ccnc2cc(Cl)ccc12 (stereo not given)

IC50 (Plasmodium falciparum [3]): 120 nM
Compound: CCN(CC)CCCC(C)Nc1ccnc2c(NC(=O)CCCCC(=O)Nc3cccc4c(NC(C)CCCN(CC)CC)ccnc34)cccc12 (stereo not given)

Compound: CC(C)C1=C[C@H]2OC3(CCC(NCCNc4ccnc5cc(Cl)ccc45)CC3)OO[C@@]2(C)CC1.O=C(O)CC(O)(CC(=O)O)C(=O)O (stereo not given in full)
IC50 (Plasmodium falciparum [4]): 15 nM
ED50 (Plasmodium vinckei): 5 mg/kg

Compound: O=C1CCSC(c2ccc(Cl)cc2)N1CCCNc1ccnc2cc(Cl)ccc12 (stereo not given)
IC50 (Plasmodium falciparum [5]): 13 nM

Compound: Clc1ccc2c(NCC[C@H]3CCN4CCCC[C@@H]4C3)ccnc2c1
IC50 (Plasmodium falciparum [5]): 21 nM

Compound: Clc1ccc2c(NCCNCC3CCC4(CC3)OOC3(CCCCC3)OO4)ccnc2c1
MTD [6]: > 960 mg/kg
Activity (Plasmodium berghei [2]): 80 mg/kg

MIC (Plasmodium falciparum [1]; Plasmodium falciparum): 2 µg/mL (≈ 4.4 µM)
Compound: CN(CC(O)CNCc1ccc(Cl)c(Cl)c1)S(=O)(=O)c1cccc2cnccc12 (stereo not given)

Compound: O=C(NCCNc1ccnc2cc(Cl)ccc12)C1CCC2(CC1)OOC1(CCCCC1)OO2
MTD [6]: > 960 mg/kg
Activity (Plasmodium berghei [2]): 80 mg/kg

IC50 (Plasmodium falciparum [1]; Plasmodium falciparum): 2.9 µg/mL
IC90 (Plasmodium falciparum [1]; Plasmodium falciparum): 6.5 µg/mL (≈ 19.1 µM)
Compound: N=C(N)c1ccc(OCCCCCOc2ccc(C(=N)N)cc2)cc1 [PENTAMIDINE]

Compound: COc1cc(NC(C)CCCN)c2nc(C(C)(C)C)ccc2c1 (stereo not given)
Activity (Plasmodium berghei [7]): 100%

Compound: CN(C)CCCN(CCCN(C)C)CCCN1c2ccccc2Sc2ccc(Cl)cc21
IC50 (Plasmodium falciparum [8]): 120 nM

IC50 (Plasmodium falciparum [1]; Plasmodium falciparum): 4.47 µg/mL
Compound: CCOC(=O)c1c(C)nc2ccc(Cl)cc2c1-c1ccccc1

Compound: Clc1ccc2c(N3CCNCC3)ccnc2c1
IC50 (Plasmodium falciparum [5]): 1020 nM
IC50 (Plasmodium falciparum [9]): 1020 nM

IC50 (Plasmepsin II): 0.59 nM
Compound: CCCCNC(=O)C[C@H](O)[C@H](CC(C)C)NC(=O)[C@@H](NC(=O)c1ccc(Oc2ccc(C(=O)N[C@@H](CC(C)C)C(=O)N[C@@H](CCCCN)C(=O)NCCCC(C)Nc3cc(OC)cc4cccnc34)cc2)cc1)[C@@H](C)CC (stereo not given in full)

IC50 [10]: 0.0004 µg/mL (≈ 0.000972 µM)
Compound: Cc1cc(NC(=O)c2ccco2)c2cc(NC(=O)Nc3cccc(C#N)c3)ccc2n1

Compound: O=C(CN(CCCNc1ccnc2cc(Cl)ccc12)C(=O)c1ccncc1)NC1CCCCC1
IC50 (Plasmodium falciparum [5]): 73 nM

IC50 [10]: 0.0004 µg/mL (≈ 0.000798 µM)
Compound: Cc1cc(NC(=O)CN2CCN(C)CC2)c2cc(NC(=O)Nc3cc(Cl)cc(Cl)c3)ccc2n1

Compound: C1CC2CCC1CN2 [ISOQUINUCLIDINE]
pKa [11]: 11

Compound: CCN(CC)Cc1ccc(Nc2ccnc3cc(Cl)ccc23)cc1O [ISOQUINE]
IC50 (Plasmodium falciparum [12]): 6.01 nM

Compound: CCCCCOc1c(OC)cc(NC(C)CCCN)c2nccc(CC)c12 (stereo not given)
IC50 (Plasmodium falciparum [5]): 0.0097 µg/mL
IC50 (Plasmodium falciparum [9]): 0.0094 µg/mL

Compound: O=C1CSC(c2c(Cl)cccc2Cl)N1CCNc1ccnc2cc(Cl)ccc12 (stereo not given)
IC50 (Plasmodium falciparum [5]): 13 nM

Compound: Clc1ccc2c(NC[C@H]3CCN4CCCC[C@@H]4C3)ccnc2c1
IC50 (Plasmodium falciparum [5]): 21 nM

Compound: Clc1cccc(C(Nc2ccnc3cc(Cl)ccc23)c2ccc(CN3CCCC3)cc2)c1 (stereo not given)
Activity (Plasmodium chabaudi): Active

IC50 (Plasmodium falciparum [1]; Plasmodium falciparum): 2.56 µg/mL
Compound: CCOC(=O)c1c(CN2CCCCC2)nc2ccc(Cl)cc2c1-c1ccccc1

IC50 [13]: 17700 nM
Compound: CC1(C(=O)NC2CCCCC2)CCCC(=O)N1CCCCCCNc1ccnc2cc(Cl)ccc12 (stereo not given)

IC50 (Plasmodium falciparum [1]; Plasmodium falciparum): 19000 nM
Compound: COc1cc2cc(/C=C/C(=O)c3ccc(Cl)cc3Cl)c(Cl)nc2cc1OC

IC50 (Plasmodium berghei [2]; Plasmodium berghei): 1.39 µg/mL
Compound: OC1(C(F)(F)F)CC(c2ccc(Cl)cc2)=NN1c1ccnc2cc(Cl)ccc12 (stereo not given)

Compound: Cn1cnc(S(=O)(=O)N(Cc2ccccc2)C2Cc3cc(C#N)ccc3N(Cc3cncn3C)C2)c1 (stereo not given)
EC50 (Plasmodium falciparum [14]): 5 nM
IC50 [15]: 0.6 nM

Compound: CC(C)(C)NCc1cc(Nc2ccnc3cc(Cl)ccc23)ccc1F
ED50 (Plasmodium berghei [2]; Plasmodium berghei): 5.3 mg/kg

Compound: Clc1ccc2c(N3CCN(CCCN4CCN(c5ccnc6cc(Cl)ccc56)CC4)CC3)ccnc2c1 [PIPERAQUINE]
IC50 (Plasmodium falciparum [9]): 36 nM

Compound: CN1CC2CCC1C(CNc1ccnc3cc(Cl)ccc13)C2 (stereo not given)
Ratio IC50 (Plasmodium falciparum [16]): >1200

IC50 (Plasmodium berghei [2]; Plasmodium berghei): 1.39 µg/mL
Compound: OC1(C(F)(F)F)CC(c2ccc(Br)cc2)=NN1c1ccnc2cc(Cl)ccc12 (stereo not given)

Compound: Clc1ccc2c(N[C@H]3CCN4CCCC[C@@H]4C3)ccnc2c1
IC50 (Plasmodium falciparum [5]): 21 nM
IC50 (Plasmodium falciparum [17]): 23.3 nM

Compound: Clc1ccc2c(NCCC[C@H]3CCN4CCCC[C@@H]4C3)ccnc2c1
IC50 (Plasmodium falciparum [5]): 21 nM

Compound: Clc1ccc2c(N3CCN(Cc4ccccc4Br)CC3)ccnc2c1
IC50 (Plasmodium falciparum [5]): 11400 nM

Compound: O=C1c2ccccc2SCN1CCNc1ccnc2cc(Cl)ccc12
IC50 (Plasmodium falciparum [5]): 13 nM

Compound: CCC(=O)CCCCC[C@@H]1NC(=O)[C@H]2CCCCN2C(=O)[C@H]([C@H](C)CC)NC(=O)[C@H](c2c[nH]c3ccccc3c2=O)NC1=O
IC50 (Plasmodium falciparum [5]): 0.04 µg/mL
IC50 (Plasmodium falciparum [9]): 0.04 µg/mL

Compound: CCN(CCNc1ccnc2cc(Cl)ccc12)CCNS(=O)(=O)c1ccc2c(N(C)C)cccc2c1
IC50 (Plasmodium falciparum [18]): 17.5 nM
IC50 (Plasmodium falciparum [19]): 22.7 nM
